The target of this assay is T1, TcLAP (T. cruzi acidic M17 leucyl-aminopeptidase; LAPTc) (Trypanosoma cruzi, UniProt Q4DZJ3).
T1 construct: gene Tc00.1047053508799.240; recombinant TcLAP (rTcLAP)
T1 sequence (Q4DZJ3 1-520): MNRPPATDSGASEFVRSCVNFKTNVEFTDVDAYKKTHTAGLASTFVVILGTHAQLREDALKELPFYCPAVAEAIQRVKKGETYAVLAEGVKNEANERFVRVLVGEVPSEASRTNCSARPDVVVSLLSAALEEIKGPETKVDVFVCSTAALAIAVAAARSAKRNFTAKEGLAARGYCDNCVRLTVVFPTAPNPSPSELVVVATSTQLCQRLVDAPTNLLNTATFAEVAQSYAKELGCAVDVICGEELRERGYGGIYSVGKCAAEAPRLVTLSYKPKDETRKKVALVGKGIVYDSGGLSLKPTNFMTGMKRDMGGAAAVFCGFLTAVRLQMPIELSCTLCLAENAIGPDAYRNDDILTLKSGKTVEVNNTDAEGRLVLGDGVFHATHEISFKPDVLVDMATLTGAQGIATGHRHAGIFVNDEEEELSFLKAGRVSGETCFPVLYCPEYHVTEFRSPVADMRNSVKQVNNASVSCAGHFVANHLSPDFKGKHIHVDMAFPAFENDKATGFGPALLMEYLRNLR
Kind of assay: continuous chromogenic assay of purified rTcLAP with Leu-pNA at […] nm, […] min preincubation. In kind it is biochemical.

The structures appear in SMILES notation.

Turning to `CC(C)C[C@@H](C(=O)O)N(C(=O)[C@H](N)Cc1ccccc1)C(C(=O)NCc1ccccc1)c1ccco1` (stereo partly shown) [KBE009], the IC50 turned out to be 66 ± 13.5 µM.

A word on the IC50: it is the midpoint of a concentration-inhibition curve. Lower therefore signals higher potency.

Source of the values: publication PMC8540442, “KBE009: A Bestatin-Like Inhibitor of the Trypanosoma cruzi Acidic M17 Aminopeptidase with In Vitro Anti-Trypanosomal Activity” (Life, 2021).
